Measurements published in patent EP0541192A1, “Use of opiate antagonists for the treatment of endogen hyperinsulinemia” (Ferring Arzneimittel GmbH, priority 1991, dated 1993).

Tests used:
[1] = side effects / tolerability during treatment; format: in vivo, Frauen; settings: 50 mg/Tag oral
[2] = general statement, no data; cited from earlier work
[3] = serum androgen and pituitary hormone levels during treatment; format: in vivo, Frauen; settings: 50 mg/Tag oral
Method: (§1) Die folgenden Untersuchungen wurden an vier gegenüber Insulin resistenten Frauen durchgeführt, welche ein Hyperandrogenämie litten. Das Alter der Frauen lag zwischen 16 und 33 Jahren und ihr Körpermasseindex (Body mass Index - BMI) reichte von 28 bis 41. Die Hyperandrogenämie wurde durch Bestimmung von LH, FSH, Prolactin, Testosteron, freien Testosteronen, SHBG und DHEAS im Serum diagnostiziert. Vor der Behandlung lagen die Testosteronwerte zwischen 0,4 und 1,65 ng/ml und die Insulinkonzentrationen betrugen von 25 bis 62 mcU/ml.
(§2) Als Opiat-Antagonist wurde Naltrexon (Ferring Arzneimittel GmbH, Kiel) in einer Dosis von 50 mg/Tag oral verabreicht. 4 Wochen nach Beginn der Naltrexon-Behandlung wurde nach dem gleichen Verfahren wie oben beschrieben ein zweiter oGTT durchgeführt und die Ergebnisse dieses Tests mit den vor Beginn der Behandlung erhaltenen Ergebnissen verglichen, wobei die Proben paarweise einem t-Test unterworfen wurden.
Im Gegensatz dazu blieben die Androgenkonzentrationen sowie die LH-, FSH- und Prolactin-Spiegel durch die Naltrexon-Behandlung unbeeinflußt.

[4] = oral glucose tolerance test (oGTT) before and after 4 weeks of treatment; format: in vivo, Frauen; settings: 50 mg/Tag oral
Method: as §1
Die Insulinresistenz wurde durch orale Verabreichung von 400 ml einer Lösung nachgewiesen, welche eine Mono-Oligosaccharidmischung enthielt, die nach enzymatischer Hydrolyse im Gastrointestinaltrakt 100 g Glucose lieferte (Dextro-oGTT, Boehringer Mannheim). Während des oralen Glucose-Toleranz-Tests (oGTT) wurden vor der Kohlenhydratbelastung und danach 3 Stunden lang im Abstand von jeweils 15 Minuten Blutproben entnommen. In allen Proben wurde die Glucosekonzentration mit dem Hexokinase/Glucose-6-Phosphatdehydrogenase-Verfahren bestimmt. Ferner wurden die Insulin- und C-Peptidkonzentrationen mit handelsüblichen Radioimmun-Kits (Serono Diagnostic, Freiburg) bestimmt. Die Ergebnisse des oGTT wurden ausgewertet, indem das Verhältnis von Insulin zu Glucose berechnet wurde und die Flächen unter den Glucose-, Insulin- und C-Peptid-Kurven während des oGTT bestimmt wurden (vgl. Figur 1).
as §2

O=C1CC[C@@]2(O)[C@H]3Cc4ccc(O)c5c4[C@@]2(CCN3CC2CC2)C1O5 (stereo partly drawn) [Naltrexon, 17-(Cyclopropylmethyl)-4,5-epoxy-3,14-dihydroxymorphinan-6-on]
Veränderungen des Blutbildes, der Leberenzyme und des Nierenstatus [1]: nicht beobachtet
Nebenwirkungen ([1]; one of four patients): Übelkeit mit Erbrechen und leichten Kopfschmerzen
Verträglichkeit ([1]; three of four patients): gut vertragen
Verweildauer im Plasma [2]: lange
Androgenkonzentrationen [3]: unbeeinflußt
FSH-Spiegel [3]: unbeeinflußt
LH-Spiegel [3]: unbeeinflußt
Prolactin-Spiegel [3]: unbeeinflußt
Verhältnis von Insulin zu Glucose ([4]; oGTT): sank
molare Verhältnis von C-Peptid zu Insulin ([4]; oGTT): stieg
Konzentration von C-Peptid ([4]; oGTT, reduced, but not to the same extent as insulin): reduziert
Insulinspiegel nach Kohlenhydratbelastung ([4]; four insulin-resistant hyperandrogenaemic women, oGTT vs. before treatment): beeindruckende Senkung
